Test results: publication PMC8200971, “Design, Synthesis, Biological Evaluation and Silico Prediction of Novel Sinomenine Derivatives” (Molecules, 2021)

Row | melting point | Structure (SMILES)
1 | 105 to 107 °C | COC1=C[C@@H]2[C@@H]3Cc4c(CN5CCCCC5)cc(OC)c(OC(=O)Cc5ccc(Cl)cc5)c4[C@]2(CCN3C)CC1=O [5a, (4bR,8aS,9S)-3,7-dimethoxy-11-methyl-6-oxo-1-(piperidin-1-ylmethyl)-6,8a,9,10-tetrahydro-5H-9,4b-(epiminoethano)phenanthren-4-yl 2-(4-chlorophenyl)acetate]
2 | 192 to 194 °C | COC1=C[C@@H]2[C@@H]3Cc4c(CN5CCCCC5)cc(OC)c(OC(=O)Cc5ccccc5)c4[C@]2(CCN3C)CC1=O [5b, (4bR,8aS,9S)-3,7-dimethoxy-11-methyl-6-oxo-1-(piperidin-1-ylmethyl)-6,8a,9,10-tetrahydro-5H-9,4b-(epiminoethano)phenanthren-4-yl 2-phenylacetate]
3 | 151 to 154 °C | COC1=C[C@@H]2[C@@H]3Cc4c(CN5CCCCC5)cc(OC)c(OC(=O)Cc5ccc(OC)c(OC)c5)c4[C@]2(CCN3C)CC1=O [5c, (4bR,8aS,9S)-3,7-dimethoxy-11-methyl-6-oxo-1-(piperidin-1-ylmethyl)-6,8a,9,10-tetrahydro-5H-9,4b-(epiminoethano)phenanthren-4-yl 2-(3,4-dimethoxyphenyl)acetate]
4 | 177 to 178 °C | COC1=C[C@@H]2[C@@H]3Cc4c(CN5CCCCC5)cc(OC)c(OC(=O)Cc5ccccc5C)c4[C@]2(CCN3C)CC1=O [5d, (4bR,8aS,9S)-3,7-dimethoxy-11-methyl-6-oxo-1-(piperidin-1-ylmethyl)-6,8a,9,10-tetrahydro-5H-9,4b-(epiminoethano)phenanthren-4-yl 2-(o-tolyl)acetate]
5 | 181 to 185 °C | COC1=C[C@@H]2[C@@H]3Cc4c(CN5CCCCC5)cc(OC)c(OC(=O)CCc5ccccc5)c4[C@]2(CCN3C)CC1=O [5e, (4bR,8aS,9S)-3,7-dimethoxy-11-methyl-6-oxo-1-(piperidin-1-ylmethyl)-6,8a,9,10-tetrahydro-5H-9,4b-(epiminoethano)phenanthren-4-yl 3-phenylpropanoate]
6 | 188 to 190 °C | COC1=C[C@@H]2[C@@H]3Cc4c(CN5CCCCC5)cc(OC)c(OC(=O)Cc5ccccc5Cl)c4[C@]2(CCN3C)CC1=O [5f, (4bR,8aS,9S)-3,7-dimethoxy-11-methyl-6-oxo-1-(piperidin-1-ylmethyl)-6,8a,9,10-tetrahydro-5H-9,4b-(epiminoethano)phenanthren-4-yl 2-(2-chlorophenyl)acetate]
